The values below come from patent US20240043860A1, “NOVEL HYDROXYPHENYLPYRUVATE DIOXYGENASE POLYPEPTIDES AND METHODS OF USE THEREOF” (Syngenta Crop Protection AG, priority 2020, published 2024).

Experiment [1] relates to HPPD variant APESV V209 (SEQ ID NO: 18). Briefly: coupled HGO assay. The class given is biochemical, Apera spica-venti. As for the experimental part: (§1) DNA sequences (SEQ ID NOs: 65-118, 128, 130, 131, and 133), synthesized for expression in E. coli, by GeneWiz (USA) to encode HPPD variants (SEQ ID NOs: 5-58, 122, 124, 125 and 127) derived from either Avena sativa (SEQ ID NOs: 122, 124), Alopecurus myosuroides (SEQ ID NO: 126) or Apera spica-venti (SEQ ID NOs: 123, 125) were transformed into E coli BL21 (DE3) (New England Biolabs) and grown in 0.5 ml Terrific broth +50 ug/ml Kanamycin media in a 96-deepwell block overnight (37° C., 900rpm). 25 ul of the overnight cultures were inoculated into fresh 96-deepwell block containing 1 ml Formedium Autoinduction Media (AIM). The AIM cultures were grown for 3h at 37° C. (900rpm) and then transferred to 20° C. overnight (900rpm) to allow protein expression. The overnight cultures were centrifuged and 500 ul of Cellytic B (Sigma Aldrich) was added to resuspend the cell pellets. The coupled HGO assay (Siehl et al, 2014) is used to generate IC50 values for the HPPD variants of interest.
(§2) E. coli BL21 (DE3) cells were transformed with a pET24a vector containing a C-terminally his-tagged Arabidopsis HGO gene, grown and induced overnight as described for the HPPD variants above. The cell pellet was resuspended in phosphate buffered saline at pH 7.4 containing 10% Glycerol, 1mm Tris[2-carboxyethyl] phosphine-HCl (TCEP) plus 30 mM Imidazole and lysed using lysozyme/benzonase. The extract was clarified by low speed centrifugation and purified in the same buffer down a 1 ml His Gravitrap column. The bound HGO was eluted in 0.25M imidazole and the fractions pooled and beaded into liquid nitrogen. All procedures apart from the centrifugation and beading steps were carried out under a nitrogen atmosphere.
(§3) The coupled HGO assay is carried out by adding 10 ul of HPPD extract to a 96-well plate and then adding 40 ul of reaction buffer (50 mM Bis Tris Propane, pH7.0, 25 mM sodium-L-ascorbate, 400μM mercaptoethanol, 50 μM Fe(II)SO4). The plates are left to incubate for 5 minutes on ice. […] 200 ul of HPP/HGO (197 μM hydroxyphenylpyruvic acid, 16 μl/ml Homogentisic Acid Oxidase in reaction buffer as described above) buffer is then added to the well and the reaction is regularly monitored (e.g. every 30 seconds-5 minutes) for absorbance at 330 nm for a given time period (e.g., for between 15-60 minutes). The data can then be used to calculate the IC50 value for each HPPD variant of interest.

The subject of experiment [2] is HPPD variant APESV V200 (SEQ ID NO: 6). Briefly: coupled HGO assay. The class given is biochemical, Apera spica-venti. As to the method:
as §1, §2, §3

The target in experiment [3] is HPPD variant AVESA V209 (SEQ ID NO: 17) (Avena sativa, UniProt A0ACD5V6K6, A327R/I340E/L359M/R214G/V218I/V260A). Briefly: biochemical. It counts as biochemical. As for the experimental part: (§4) 25 ul of the overnight cultures were inoculated into fresh 96-deepwell block containing 1 ml Formedium Autoinduction Media (AIM). The AIM cultures were grown for 3h at 37° C. (900rpm) and then transferred to 20° C. overnight (900rpm) to allow protein expression. The overnight cultures were centrifuged and 500 ul of Cellytic B (Sigma Aldrich) was added to resuspend the cell pellets. The coupled HGO assay (Siehl et al, 2014) is used to generate IC50 values for the HPPD variants of interest.
as §2, §3

Experiment [4] deals with HPPD variant AVESA V209 (SEQ ID NO: 17). Briefly: biochemical. It counts as biochemical, Avena sativa. The settings on record: SEQ ID NO: 17 compared to control SEQ ID NO: 122. As for the experimental part: as §4, §2, §3
Experiment [5] has as its system HPPD variant AVESA V208 (SEQ ID NO: 14). Briefly: biochemical. It counts as biochemical, Avena sativa. The settings on record: SEQ ID NO: 14 compared to control SEQ ID NO: 122. As to the method:
as §4, §2, §3

The test system of experiment [6] is HPPD variant APESV V208 (SEQ ID NO: 15). As to the kind of experiment: coupled HGO assay. It counts as biochemical, Apera spica-venti. As for the experimental part:
as §1, §2, §3

A value given as a limit tells only on which side of the number the result lay.

HPPD variant AVESA V209 (SEQ ID NO: 17) (Avena sativa, UniProt A0ACD5V6K6, A327R/I340E/L359M/R214G/V218I/V260A), sequence (A0ACD5V6K6 entry or part of it R214G/V218I/V260A/A327R/I340E/L359M): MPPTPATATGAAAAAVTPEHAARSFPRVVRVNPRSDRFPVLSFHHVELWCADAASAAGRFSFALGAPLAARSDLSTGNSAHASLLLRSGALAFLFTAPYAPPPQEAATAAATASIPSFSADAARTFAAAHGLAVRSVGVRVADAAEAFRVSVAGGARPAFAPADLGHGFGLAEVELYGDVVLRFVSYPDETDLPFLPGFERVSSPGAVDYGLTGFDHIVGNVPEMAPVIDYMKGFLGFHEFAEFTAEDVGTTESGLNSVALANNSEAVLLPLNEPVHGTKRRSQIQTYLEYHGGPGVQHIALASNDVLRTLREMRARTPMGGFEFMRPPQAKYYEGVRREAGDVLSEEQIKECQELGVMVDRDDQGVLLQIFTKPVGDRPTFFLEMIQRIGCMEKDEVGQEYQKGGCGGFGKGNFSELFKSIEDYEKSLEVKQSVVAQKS

One may read the IC50 as the concentration needed to halve the response being measured. Take `Cn1nnnc1NC(=O)c1ccc(C(F)(F)F)nc1-n1cncn1` [Herbicide D, N-(1-methyltetrazol-5-yl)-2-(1,2,4-triazol-1-yl)-6-(trifluoromethyl)pyridine-3-carboxamide]: the IC50 is 95 µM in experiment [1], 85.9 µM in experiment [2] and 106 µM in experiment [3]. Besides, the “increase of the IC50 value” in experiment [4] is given as roughly 14 fold.
With `COc1ccc(-n2nc(C)cc(C(=O)C3C(=O)CCCC3=O)c2=O)cc1OC` [Herbicide C, dioxopyritrione], the “increase of the IC50 value” in experiment [5] is reported as greater than 200 fold.
Compound bicyclopyrone returned an IC50 in experiment [6] of 1 µM.
